# From patent US12428406B2 (PMV Pharmaceuticals, Inc., priority 2019, dated 2025)
# Molecular target: T1, p53 Y220C (Homo sapiens, UniProt P04637, Y220C)
# T1 construct: The recombinant protein was a truncation mutant containing only amino acids 94-312 of p53; made in house; host or cells: E. coli
# Experiment: In vitro DNA binding activity assay (HTRF / TR-FRET): stabilization of p53 Y220C and increase of its DNA binding activity
# Type: biochemical
# Details: recombinant His-tagged p53 Y220C DNA binding domain (aa 94-312), biotin-labeled consensus DNA, incubated at 27° C. or 29° C. for 60 min
# How it was run: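 His-tagged p53 Y220C, E. coli-expressed, binding biotin-labeled consensus DNA measured by HTRF (anti-His-APC, streptavidin-europium). Compounds from 4.5 mM DMSO stocks, 3-fold serial dilutions; incubations at room temperature 15 min, then 20 min. SC150 = concentration raising DNA binding by 50%.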
# T1 sequence (P04637 94-312, change not shown): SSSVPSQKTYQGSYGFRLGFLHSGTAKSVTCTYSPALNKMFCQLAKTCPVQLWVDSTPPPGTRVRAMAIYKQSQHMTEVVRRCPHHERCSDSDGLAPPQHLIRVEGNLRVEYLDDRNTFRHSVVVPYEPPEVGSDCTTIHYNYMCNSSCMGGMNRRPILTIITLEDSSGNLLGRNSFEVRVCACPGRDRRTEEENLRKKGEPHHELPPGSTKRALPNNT
row,Compound,SC150 (concentration of the compound required to increase the DNA binding activity by 50%)
1,"CNC(=O)c1ccc(NCC#Cc2cc3c(N[C@H]4CC[C@H](N5CCC6(CCOC6)CC5)CC4)cccc3n2CC(F)(F)F)c(OC)c1 [Compound 409A, 3-methoxy-N-methyl-4-{[3-(4-{[(1R,4R)-4-{2-oxa-8-azaspiro[4.5]decan-8-yl}cyclohexyl]amino}-1-(2,2,2-trifluoroethyl)-1H-indol-2-yl)prop-2-yn-1-yl]amino}benzamide]",+ (+ = 0 μM ≤ SC150 < 0.05 μM)
2,"CNC(=O)c1ccc(NCC#Cc2cc3c(N[C@H]4CC[C@@H](N5CC6(COC6)C5)CC4)cccc3n2CC(F)(F)F)c(OC)c1 [Compound 230A, 3-methoxy-N-methyl-4-{[3-(4-{[(1S,4S)-4-{2-oxa-6-azaspiro[3.3]heptan-6-yl}cyclo-hexyl]amino}-1-(2,2,2-trifluoroethyl)-1H-indol-2-yl)prop-2-yn-1-yl]amino}benzamide]",+ (+ = 0 μM ≤ SC150 < 0.05 μM)
3,"COc1cc(S(C)(=O)=O)ccc1NCC#Cc1cc2c(N[C@H]3CCCC[C@H]3N)cccc2n1CC(F)(F)F (racemic) [Compound 29A, rac-(1R,2S)-N^1-(2-{3-[(4-methanesulfonyl-2-methoxyphenyl)amino]prop-1-yn-1-yl}-1-(2,2,2-trifluoroethyl)-1H-indol-4-yl)cyclo-hexane-1,2-diamine]",+ (+ = 0 μM ≤ SC150 < 0.05 μM)
4,"COc1cc(C(=O)O)ccc1NCC#Cc1cc2c(N[C@@H]3CCN(C)C[C@H]3F)cccc2n1CC(F)(F)F [Compound 788A, 4-{[3-(4-{[(3R,4R)-3-fluoro-1-methylpiperidin-4-yl]amino}-1-(2,2,2-trifluoroethyl)-1H-indol-2-yl)prop-2-yn-1-yl]amino}-3-methoxybenzoic acid]",+ (+ = 0 μM ≤ SC150 < 0.05 μM)
5,"CS(=O)(=O)c1ccc(NCC#Cc2cc3c(N[C@H]4CC[C@H](N5CC6(CCOCC6)C5)CC4)cccc3n2CC(F)(F)F)c(OCC#N)c1 [Compound 303A, 2-(5-methanesulfonyl-2-{[3-(4-{[(1R,4R)-4-{7-oxa-2-azaspiro[3.5]nonan-2-yl}cyclohexyl]amino}-1-(2,2,2-trifluoroethyl)-1H-indol-2-yl)prop-2-yn-1-yl]amino}phenoxy)acetonitrile]",+ (+ = 0 μM ≤ SC150 < 0.05 μM)
6,"COc1cc(S(C)(=O)=O)ccc1NCC#Cc1cc2c(N(C)C)cccc2n1CC(F)(F)F [Compound 1A, 2-{3-[(4-methanesulfonyl-2-methoxyphenyl)amino]prop-1-yn-1-yl}-N,N-dimethyl-1-(2,2,2-trifluoroethyl)-1H-indol-4-amine]",+++ (+++ = 0.1 μM ≤ SC150 < 0.2 μM)
7,"COc1cc(C#N)ccc1NCC#Cc1cc2c(NC3CCC(N4CC5(COC5)C4)CC3)cccc2n1CC(F)(F)F [Compound 250A, 3-methoxy-4-{[3-(4-{[(1S,4S)-4-{2-oxa-6-azaspiro[3.3]heptan-6-yl}cyclohexyl]amino}-1-(2,2,2-trifluoroethyl)-1H-indol-2-yl)prop-2-yn-1-yl]amino}benzonitrile]",+ (+ = 0 μM ≤ SC150 < 0.05 μM)
8,"CS(=O)(=O)c1ccc(NCC#Cc2cc3c(NC4CCC(N5CCOCC5)CC4)cccc3n2CC(F)(F)F)c(OCF)c1 [Compound 340A, 2-(3-{[2-(fluoro-methoxy)-4-methane-sulfonylphenyl]amino}prop-1-yn-1-yl)-N-[(1R,4R)-4-(morpholin-4-yl)cyclohexyl]-1-(2,2,2-trifluoroethyl)-1H-indol-4-amine]",+ (+ = 0 μM ≤ SC150 < 0.05 μM)
9,COc1cc(C(=O)O)ccc1NCC#Cc1cc2c(N[C@H]3CCN(CC(N)=O)C[C@H]3F)cccc2n1CC(F)(F)F [Compound 925A],+ (+ = 0 μM ≤ SC150 < 0.05 μM)
10,"COc1cc(S(C)(=O)=O)ccc1NCC#Cc1cc2c(N[C@H]3CCOC[C@@H]3OC)cccc2n1CC(F)(F)F [Compound 1023A, 2-(3-((2-methoxy-4-(methylsulfonyl)phenyl)amino)prop-1-yn-1-yl)-N-((3R,4S)-3-methoxytetrahydro-2H-pyran-4-yl)-1-(2,2,2-trifluoroethyl)-1H-indol-4-amine]",++ (++ = 0.05 μM ≤ SC150 < 0.1 μM)
11,"CN(C)[C@H]1CC[C@H](Nc2cccc3c2cc(C#CCNc2ccc(S(C)(=O)=O)cc2OCC(F)(F)F)n3CC(F)(F)F)CC1 [Compound 92A, (1R,4R)-N^4-[2-(3-{[4-methanesulfonyl-2-(2,2,2-trifluoroethoxy)phenyl]amino}prop-1-yn-1-yl)-1-(2,2,2-trifluoro-ethyl)-1H-indol-4-yl]-N^1,N^1-dimethylcyclo-hexane-1,4-diamine]",+ (+ = 0 μM ≤ SC150 < 0.05 μM)
12,"COCC(O)CN1CCC(Nc2cccc3c2cc(C#CCNc2cc(F)c(C(N)=O)cc2OC)n3CC(F)(F)F)CC1 (stereo not shown) [Compound 683A, 2-fluoro-4-{[3-(4-{[1-(2-hydroxy-3-methoxypropyl)piperidin-4-yl]amino}-1-(2,2,2-trifluoroethyl)-1H-indol-2-yl)prop-2-yn-1-yl]amino}-5-methoxybenzamide]",+ (+ = 0 μM ≤ SC150 < 0.05 μM)
13,"COc1cc(C(=O)O)ccc1NCC#Cc1cc2c(NC3CCN(CCCS(C)(=O)=O)CC3)cccc2n1CC(F)(F)F [Compound 707A, 4-{[3-(4-{[1-(3-methanesulfonylpropyl)piperidin-4-yl]amino}-1-(2,2,2-trifluoroethyl)-1H-indol-2-yl)prop-2-yn-1-yl]amino}-3-methoxybenzoic acid]",+ (+ = 0 μM ≤ SC150 < 0.05 μM)
14,"COc1cc(C(=O)N2CCC(N(C)C)CC2)ccc1NCC#Cc1cc2c(NC3CCN(C)CC3)cccc2n1CC(F)(F)F [Compound 499A, 2-[3-({4-[4-(dimethylamino)piperidine-1-carbonyl]-2-methoxyphenyl}amino)prop-1-yn-1-yl]-N-(1-methylpiperidin-4-yl)-1-(2,2,2-trifluoroethyl)-1H-indol-4-amine]",+ (+ = 0 μM ≤ SC150 < 0.05 μM)
15,"CNC(=O)c1ccc(NCC#Cc2cc3c(N[C@H]4CC[C@H](N5CCC(S(C)(=O)=O)CC5)CC4)cccc3n2CC(F)(F)F)c(OC)c1 [Compound 444A, 3-methoxy-N-methyl-4-{[3-(4-{[(1R,4R)-4-(4-methane-sulfonylpiperidin-1-yl)cyclohexyl]amino}-1-(2,2,2-trifluoroethyl)-1H-indol-2-yl)prop-2-yn-1-yl]amino}benzamide]",+ (+ = 0 μM ≤ SC150 < 0.05 μM)
16,"CN1CC[C@@H](Nc2cccc3c2cc(C#CCNC(=O)[C@@H]2C[C@H]2c2ccccc2)n3CC(F)(F)F)[C@@H](F)C1 [Compound 952A, (1R,2R)—N-[3-(4-{[(3S,4R)-3-fluoro-1-methylpiperidin-4-yl]amino}-1-(2,2,2-trifluoroethyl)-1H-indol-2-yl)prop-2-yn-1-yl]-2-phenylcyclopropane-1-carboxamide]",+ (+ = 0 μM ≤ SC150 < 0.05 μM)
17,"CC(C)C(=O)N(CC#Cc1cc2c(N[C@H]3CC[C@H](N4CC5(COC5)C4)CC3)cccc2n1CC(F)(F)F)c1ccc(S(C)(=O)=O)cc1O [Compound 218A, N-(2-hydroxy-4-methanesulfonylphenyl)-2-methyl-N-[3-(4-{[(1R,4R)-4-{2-oxa-6-azaspiro[3.3]heptan-6-yl}cyclohexyl]amino}-1-(2,2,2-trifluoroethyl)-1H-indol-2-yl)prop-2-yn-1-yl]propanamide]",++++ (++++ = 0.2 μM ≤ SC150 < 1 μM)
18,"COCCOc1cc(S(C)(=O)=O)ccc1NCC#Cc1cc2c(N[C@H]3CC[C@H](N4CC5(COC5)C4)CC3)cccc2n1CC(F)(F)F [Compound 220A, 2-(3-{[4-methane-sulfonyl-2-(2-methoxyethoxy)phenyl]amino}prop-1-yn-1-yl)-N-[(1R,4R)-4-{2-oxa-6-azaspiro[3.3]heptan-6-yl}cyclohexyl]-1-(2,2,2-trifluoroethyl)-1H-indol-4-amine]",+ (+ = 0 μM ≤ SC150 < 0.05 μM)
19,"COCC(O)CN1CCC(Nc2cccc3c2cc(C#CCNc2ccc(S(=O)(=O)c4ccccc4)cc2OC)n3CC(F)(F)F)CC1 (stereo not shown) [Compound 691A, 1-(4-{[2-(3-{[4-(benzenesulfonyl)-2-methoxyphenyl]amino}prop-1-yn-1-yl)-1-(2,2,2-trifluoroethyl)-1H-indol-4-yl]amino}piperidin-1-yl)-3-methoxypropan-2-ol]",+ (+ = 0 μM ≤ SC150 < 0.05 μM)
20,COc1cc(S(N)(=O)=O)ccc1NCC#Cc1cc2c(N[C@@H]3CCN(C[C@@H](O)CO)C[C@@H]3F)cccc2n1CC(F)(F)F [Compound 882A],+ (+ = 0 μM ≤ SC150 < 0.05 μM)
21,"COc1cc(C(=O)N2CC3(COC3)C2)ccc1NCC#Cc1cc2c(N[C@@H]3CCN(C)C[C@@H]3F)cccc2n1CC(F)(F)F [Compound 906A, N-[(3S,4R)-3-fluoro-1-methylpiperidin-4-yl]-2-{3-[(2-methoxy-4-{2-oxa-6-azaspiro[3.3]heptane-6-carbonyl}phenyl)amino]prop-1-yn-1-yl}-1-(2,2,2-trifluoroethyl)-1H-indol-4-amine]",+ (+ = 0 μM ≤ SC150 < 0.05 μM)
22,"COc1cc(C(=O)O)ccc1NCC#Cc1cc2c(N[C@H]3CCN(C)C[C@@H]3F)cccc2n1CC(F)(F)F (racemic) [Compound 833A, rac-4-{[3-(4-{[(3R,4R)-3-fluoro-1-methylpiperidin-4-yl]amino}-1-(2,2,2-trifluoroethyl)-1H-indol-2-yl)prop-2-yn-1-yl]amino}-3-methoxybenzoic acid]",++ (++ = 0.05 μM ≤ SC150 < 0.1 μM)
